These results are taken from ChEMBL document CHEMBL1156180, “Synthesis and bioluminescence-inducing properties of autoinducer (S)-4,5-dihydroxypentane-2,3-dione and its enantiomer” (Bioorg Med Chem Lett, 2010).

The assay addresses Autoinducer 2-binding periplasmic protein LuxP (Vibrio harveyi) (UniProt P54300). In words: Induction of Vibrio harveyi BB170 LuxP sensor protein-mediated quorum sensing activity at 0.5 to 5 ug/ml by reporter bioluminescence assay.

Activity calls are given as the source filed them. No cut-off for these calls is given here.

Autoinducer 2-binding periplasmic protein LuxP (Vibrio harveyi), sequence (P54300 whole entry): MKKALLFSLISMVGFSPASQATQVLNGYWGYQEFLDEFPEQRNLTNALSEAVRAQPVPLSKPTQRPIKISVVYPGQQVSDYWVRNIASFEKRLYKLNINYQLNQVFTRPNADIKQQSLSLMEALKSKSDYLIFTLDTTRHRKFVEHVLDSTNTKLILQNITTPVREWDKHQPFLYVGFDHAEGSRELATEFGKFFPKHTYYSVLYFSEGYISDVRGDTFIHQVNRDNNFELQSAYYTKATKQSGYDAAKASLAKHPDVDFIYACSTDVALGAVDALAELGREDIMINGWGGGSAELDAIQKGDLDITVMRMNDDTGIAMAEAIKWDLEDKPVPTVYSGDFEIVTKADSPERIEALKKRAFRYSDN

Consider `CC(=O)C(=O)[C@@H](O)CO`, for which the outcome was Active. Turning to `CC(=O)C(=O)[C@H](O)CO`, the outcome was Active.
